Measured values taken from patent US20180042227A1, “SYNERGISTIC ANTIMICROBIAL COMPOSITION” (Dow Global Technologies LLC, priority 2015, published 2018).

Columns and labels:
Assay type in all cases: cell-based
[1] = system: Pseudomonas aeruginosa DSM # 939; experiment: Minimum Inhibitory Concentration (MIC) test and synergy index, Pseudomonas aeruginosa; details: alone or in the mixture, TSB pH 7.3, 30° C. for 2 days
Experimental: (§1) The synergism of the biocides combination of the present invention was determined using the method described by Kull, F. C., et. al in Applied Microbiology 9:538-541 (1961). […] The Minimum Inhibitory Test (MIC) is designed to evaluate the lowest concentration of a biocide, biocide blend or biocide combination to prevent bacteria, yeast, or fungi from growing in a defined broth. After incubation, the samples are rated based on visually detectable turbidity. This test was carried out with a dilution factor of 1.5 for the biocides. • 1. Test samples were prepared in equal volumes in transparent containers. The biocide dilutions were done in tryptic soy broth (TSB) at pH of 7.3 for the bacteria and in malt extract broth (MEB) at pH 5.4 for the fungi strain. • 16 samples per biocide product and species to be tested were prepared in duplicates by serial dilution with a dilution factor of 1.5. • Per strain of micro-organism two samples not containing any biocide was added as a control. • 2. […] After incubation for 1 day at 30° C. the strains were harvested with buffer pH 7.3. • The concentration of cells was assessed by using a standard viable count technique. • For the inoculum, dilutions were made in buffer pH 7.3. • Yeast culture: [table] • 4. Reading was done visually by a growth/no growth rating. […]

[2] = system: Staphylococcus Aureus DSM # 799; experiment: Minimum Inhibitory Concentration (MIC) test and synergy index, Staphylococcus aureus; details: alone or in the mixture, TSB pH 7.3, 30° C. for 2 days
Experimental: as §1

[3] = system: Candida Albicans DSM # 1386; experiment: Minimum Inhibitory Concentration (MIC) test and synergy index, Candida albicans; details: alone or in the mixture, MEB pH 5.4, 28° C. for 2 days
Experimental: The synergism of the biocides combination of the present invention was determined using the method described by Kull, F. C., et. al in Applied Microbiology 9:538-541 (1961). […] The Minimum Inhibitory Test (MIC) is designed to evaluate the lowest concentration of a biocide, biocide blend or biocide combination to prevent bacteria, yeast, or fungi from growing in a defined broth. After incubation, the samples are rated based on visually detectable turbidity. This test was carried out with a dilution factor of 1.5 for the biocides. • 1. Test samples were prepared in equal volumes in transparent containers. The biocide dilutions were done in tryptic soy broth (TSB) at pH of 7.3 for the bacteria and in malt extract broth (MEB) at pH 5.4 for the fungi strain. • 16 samples per biocide product and species to be tested were prepared in duplicates by serial dilution with a dilution factor of 1.5. • Per strain of micro-organism two samples not containing any biocide was added as a control. • 2. […] Reading was done visually by a growth/no growth rating. […]

SMILES | Minimum Concentration (active ppm) to Inhibit Growth, DTBMA ([1]; DTBMA concentration) | Minimum Concentration (active ppm) to Inhibit Growth, DTBMA ([2]; DTBMA concentration) | Minimum Concentration (active ppm) to Inhibit Growth, DTBMA ([3]; DTBMA concentration) | Minimum Concentration (active ppm) to Inhibit Growth, Diamine ([1]; Diamine concentration) | Minimum Concentration (active ppm) to Inhibit Growth, Diamine ([2]; Diamine concentration) | Minimum Concentration (active ppm) to Inhibit Growth, Diamine ([3]; Diamine concentration)
CNC(=O)c1ccccc1SSc1ccccc1C(=O)NC [DTBMA alone, dithio-2,2′-bis-benzmethylamide] | 222 active ppm | 20 active ppm | 148 active ppm |  |  | 
CCCCCCCCCCCCN(CCCN)CCCN [Diamine alone, N-(3-Aminopropyl)-N-dodecylpropane-1,3-diamine] |  |  |  | 148 active ppm | 44 active ppm | 148 active ppm
